EPA's ToxRefDB 2

Legend:
rat [1] = conditions: Developmental neurotoxicity study; long evans; Injection; Intraperitoneal; dose end: 80 PND; group: cannot be grouped; systemic / in life observation / body weight / offspring (pup) weight + systemic / in life observation / clinical signs / abnormal movements…
rat [2] = conditions: Combined chronic toxicity/carcinogenicity, sprague dawley, Oral, Feed, dose end: 24 month
mouse [3] = conditions: Subchronic oral toxicity in rodents, cd1, Feed, dose end: 7 week
rat [4] = conditions: Subchronic oral toxicity in rodents, Charles River Crl:CD BR, Feed, dose end: 6 week
rabbit = conditions: Prenatal developmental toxicity study, new zealand white, Oral, Gavage/Intubation, dose end: 19 GD, group: maternal
rat [5] = conditions: Prenatal developmental toxicity study, other, Oral, Gavage/Intubation, dose end: 16 GD, group: maternal
dog [6] = conditions: Chronic toxicity, beagle, Oral, Feed, dose end: 52 week
dog [7] = conditions: Subchronic oral toxicity in nonrodent, beagle, Feed, dose end: 26 week
rat [8] = conditions: Subchronic oral toxicity in rodents, other, Feed, dose end: 90 day
dog [9] = conditions: Subchronic oral toxicity in nonrodent, beagle, Feed, dose end: 103 day
mouse [10] = conditions: Carcinogenicity, cd1, Oral, Feed, dose end: 18 month, group: systemic
[11] = group: cholinesterase, cholinesterase / cholinesterase / cholinesterase / erythrocyte cholinesterase (che)
[12] = group: systemic, systemic / clinical chemistry / sodium / sodium
[13] = group: cholinesterase, cholinesterase / cholinesterase / cholinesterase / plasma cholinesterase (che)
[14] = group: systemic, systemic / in life observation / body weight / body weight gain
[15] = group: systemic, systemic / in life observation / body weight / body weight gain + systemic / in life observation / mortality / mortality + systemic / in …
[16] = group: cholinesterase, cholinesterase / cholinesterase / cholinesterase / brain cholinesterase (che)
[17] = group: cholinesterase, cholinesterase / cholinesterase / cholinesterase / brain cholinesterase (che) + cholinesterase / cholinesterase / cholinesterase / plasma …
[18] = group: systemic, systemic / in life observation / body weight / body weight gain + systemic / in life observation / body weight / body weight
[19] = reproductive / reproductive performance / resorptions / resorptions + systemic / in life observation / body weight / body weight gain + …
[20] = systemic / in life observation / body weight / body weight gain + systemic / in life observation / mortality / mortality + reproductive / …
[21] = systemic / in life observation / body weight / body weight gain + systemic / in life observation / mortality / mortality + systemic / in …
[22] = group: cholinesterase, cholinesterase / cholinesterase / cholinesterase / erythrocyte cholinesterase (che) + cholinesterase / cholinesterase / cholinesterase / …
[23] = group: systemic, systemic / clinical chemistry / albumin / albumin + systemic / clinical chemistry / alkaline phosphatase (alp/alk) / alkaline phosphatase (…
[24] = group: systemic, systemic / in life observation / clinical signs / defecation (diarrhea)
[25] = group: systemic, systemic / in life observation / clinical signs / defecation (diarrhea) + systemic / in life observation / clinical signs / distended …
[26] = group: cholinesterase, cholinesterase / cholinesterase / cholinesterase / brain cholinesterase (che) + cholinesterase / cholinesterase / cholinesterase / …
[27] = group: systemic, systemic / in life observation / clinical signs / body surface staining + systemic / in life observation / clinical signs / hunched posture…
[28] = group: cholinesterase, cholinesterase / cholinesterase / cholinesterase / brain (regional) cholinesterase (che) + cholinesterase / cholinesterase / cholinesterase…
[29] = group: systemic, systemic / clinical chemistry / albumin / albumin + systemic / clinical chemistry / calcium / calcium + systemic / clinical chemistry / …
[30] = systemic / in life observation / body weight / body weight gain + systemic / in life observation / clinical signs / fur (altered appearance…

## N#CCCNCCC#N [3,3'-Iminobispropanenitrile]
Rat [1]
  LEL: 300 mg/kg/day
  LOAEL: > 300 mg/kg/day
  NEL: 150 mg/kg/day
  NOAEL: ≥ 300 mg/kg/day

## CCOP(=S)(OCC)OC(Cl)C(Cl)(Cl)Cl (configuration not stated) [Chlorethoxyfos]
Rat [2]; [11]
  LEL: 0.311 mg/kg/day
  LOAEL: 0.311 mg/kg/day
  NEL: 0.154 mg/kg/day
  NOAEL: 0.154 mg/kg/day
Rat [2]; [12]
  LEL: 0.416 mg/kg/day
  LOAEL: > 0.416 mg/kg/day
  NEL: 0.208 mg/kg/day
  NOAEL: ≥ 0.416 mg/kg/day
Mouse [3]; [13]
  LEL: 0.15 mg/kg/day
  LOAEL: 0.15 mg/kg/day
  NEL: 0.015 mg/kg/day
  NOAEL: 0.015 mg/kg/day
Mouse [3]; [14]
  LOAEL: 11.2 mg/kg/day
Mouse [3]; group: systemic, systemic / in life observation / body weight / body weight gain + systemic / in life observation / body weight / body weight + systemic / in…
  LEL: 11.2 mg/kg/day
Mouse [3]; [15]
  NEL: 0.15 mg/kg/day
  NOAEL: 0.15 mg/kg/day
Rat [4]; [16]
  LEL: 0.66 mg/kg/day
  LOAEL: 0.66 mg/kg/day
Rat [4]; [17]
  NEL: 0.132 mg/kg/day
  NOAEL: 0.132 mg/kg/day
Rat [4]; [14]
  LOAEL: 0.958 mg/kg/day
Rat [4]; [18]
  LEL: 0.958 mg/kg/day
  NEL: 0.477 mg/kg/day
  NOAEL: 0.477 mg/kg/day
rabbit; reproductive / reproductive performance / resorptions / resorptions
  LOAEL: 3.1 mg/kg/day
rabbit; [19]
  LEL: 3.1 mg/kg/day
  NEL: 1.38 mg/kg/day
  NOAEL: 1.38 mg/kg/day
Rat [5]; [20]
  LEL: 0.5 mg/kg/day
  LOAEL: 0.5 mg/kg/day
Rat [5]; [21]
  NEL: 0.25 mg/kg/day
  NOAEL: 0.25 mg/kg/day
Dog [6]; [22]
  LEL: 0.591 mg/kg/day
  LOAEL: 0.591 mg/kg/day
  NEL: 0.065 mg/kg/day
  NOAEL: 0.065 mg/kg/day
Dog [6]; group: systemic, systemic / clinical chemistry / albumin / albumin
  LOAEL: 1.86 mg/kg/day
Dog [6]; [23]
  NEL: 0.065 mg/kg/day
  NOAEL: 0.591 mg/kg/day
Dog [6]; group: systemic, systemic / clinical chemistry / calcium / calcium
  LEL: 0.591 mg/kg/day
Dog [7]; [13]
  LEL: 0.061 mg/kg/day
  LOAEL: 0.578 mg/kg/day
  NEL: < 0.061 mg/kg/day
Dog [7]; group: cholinesterase, cholinesterase / cholinesterase / cholinesterase / plasma cholinesterase (che) + cholinesterase / cholinesterase / cholinesterase / brain (…
  NOAEL: 0.061 mg/kg/day
Dog [7]; [24]
  LEL: 0.578 mg/kg/day
  LOAEL: 0.578 mg/kg/day
Dog [7]; [25]
  NEL: 0.061 mg/kg/day
  NOAEL: 0.061 mg/kg/day
Rat [8]; [26]
  LEL: 0.635 mg/kg/day
  LOAEL: > 1.64 mg/kg/day
  NEL: 0.08 mg/kg/day
  NOAEL: ≥ 1.64 mg/kg/day
Rat [8]; [27]
  LEL: 1.23 mg/kg/day
  LOAEL: 1.23 mg/kg/day
  NEL: 0.635 mg/kg/day
  NOAEL: 0.635 mg/kg/day
Dog [9]; [28]
  LEL: 0.125 mg/kg/day
  LOAEL: 0.125 mg/kg/day
  NEL: 0.0125 mg/kg/day
  NOAEL: 0.0125 mg/kg/day
Dog [9]; [29]
  LEL: 1.25 mg/kg/day
  LOAEL: > 1.25 mg/kg/day
  NEL: 0.125 mg/kg/day
  NOAEL: ≥ 1.25 mg/kg/day
Mouse [10]; [30]
  LOAEL: 14.9 mg/kg/day
  NEL: 0.337 mg/kg/day
  NOAEL: 3.25 mg/kg/day
Mouse [10]; systemic / pathology gross / skin / discolored
  LEL: 3.25 mg/kg/day
